Reference: ChEMBL document CHEMBL1772979, “SAR studies on a series of N-benzyl-4-heteroaryl-1-(phenylsulfonyl)piperazine-2-carboxamides: potent inhibitors of the polymerase enzyme (NS5B) of the hepatitis C virus” (Bioorg Med Chem Lett, 2011)

What was measured:
[1] = test system: Hepatitis C virus; experiment: Inhibition of Hepatitis C virus subtype 1b wild-type NS5B expressed in Escherichia coli BL21(DE3) assessed as decrease in [3H]-UTP incorporation using polyA template/biotin-labeled dT primer by SPA method
[2] = test system: Hepatitis C virus; experiment: Antiviral activity against Hepatitis C virus expressing NS5B Y452H mutant by cell based replicon assay; format: functional, organism-based, Hepacivirus hominis
[3] = test system: Hepatitis C virus; experiment: Antiviral activity against Hepatitis C virus subtype 1b by cell based replicon assay; format: functional, organism-based, Hepacivirus hominis, genotype 1b
[4] = test system: Hepatitis C virus; experiment: Antiviral activity against Hepatitis C virus subtype 1a by cell based replicon assay; format: functional, organism-based, Hepacivirus hominis
[5] = Inhibition of Hepatitis C virus subtype 1a wild-type NS5B expressed in Escherichia coli BL21(DE3) assessed as decrease in [3H]-UTP incorporation using polyA template/biotin-labeled dT primer by SPA method
[6] = Hepatitis C virus, genotype 1b, read-out: EC50
[7] = Hepatitis C virus, subtype 1a, read-out: EC50

EC50 [3, 6] [µM] | EC50 [4, 7] [µM] | Compound | other results
 |  | CC[C@H](C)NC(=O)c1ccc(N2CCN(S(=O)(=O)c3ccc(OC(F)(F)F)cc3)[C@@H](C(=O)NCc3ccc(OC(F)(F)F)cc3)C2)nn1 | IC50 [1]: 0.013 µM; EC50 [2]: 0.4 µM
0.007 | 0.22 | CNC(=O)c1ccc(N2CCN(S(=O)(=O)c3ccc(OC(F)(F)F)cc3)[C@@H](C(=O)NCc3ccc(OC(F)(F)F)cc3)C2)nn1 | 
0.9 | 6.2 | CCc1ccc(S(=O)(=O)N2CCN(c3cc(OC)nc(OC)n3)C[C@@H]2C(=O)NCc2ccc(OC)cc2)cc1 | 
10.1 | 14.1 | CCc1ccc(S(=O)(=O)N2CCN(c3cc(OC)nc(OC)n3)C[C@H]2C(=O)NCc2ccc(OC)cc2)cc1 | 
0.008 | 0.139 | CC(C)NC(=O)c1ccc(N2CCN(S(=O)(=O)c3ccc(OC(F)(F)F)cc3)[C@@H](C(=O)NCc3ccc(OC(F)(F)F)cc3)C2)nn1 | 
 |  | COc1cc(N2CCN(S(=O)(=O)c3cccc(-c4ccc(F)cc4)c3)C(C(=O)NCc3ccc(OC(F)(F)F)cc3)C2)nc(OC)n1 (racemic) | EC50 [3]: Not Active; EC50 [4]: Not Active
8.8 |  | CCc1ccc(S(=O)(=O)N2CCN(c3cc(OC)nc(OC)n3)CC2C(=O)NCc2ccccc2)cc1 (racemic) | EC50 [4]: Not Active
0.14 | 1.6 | COC(=O)c1cnc(N2CCN(S(=O)(=O)c3ccc(OC(F)(F)F)cc3)C(C(=O)NCc3ccc(OC(F)(F)F)cc3)C2)cn1 (racemic) | 
0.02 | 0.33 | CNC(=O)c1ccc(N2CCN(S(=O)(=O)c3ccc(OC(F)(F)F)cc3)C(C(=O)NCc3ccc(OC(F)(F)F)cc3)C2)nn1 (racemic) | 
0.22 | 2.23 | CNC(=O)c1cnc(N2CCN(S(=O)(=O)c3ccc(OC(F)(F)F)cc3)C(C(=O)NCc3ccc(OC(F)(F)F)cc3)C2)cn1 (racemic) | 
> 50 | > 50 | CCc1ccc(S(=O)(=O)N2CCN(c3cc(OC)nc(OC)n3)CC2C(=O)N(C)Cc2ccccc2)cc1 (racemic) | 
1.7 | 20.5 | CCc1ccc(S(=O)(=O)N2CCN(c3cc(OC)nc(OC)n3)CC2C(=O)NCc2ccc(C)cc2)cc1 (racemic) | 
2.2 | 23 | CCc1ccc(S(=O)(=O)N2CCN(c3cc(OC)nc(OC)n3)CC2C(=O)NCc2ccc(OC)cc2)cc1 (racemic) | IC50 [5]: 12.5 µM; IC50 [1]: 0.3 µM
0.5 | 9.2 | CCc1ccc(S(=O)(=O)N2CCN(c3cc(OC)nc(OC)n3)CC2C(=O)NCc2ccc(OC(F)(F)F)cc2)cc1 (racemic) | 
2.1 | 30.8 | CCc1ccc(S(=O)(=O)N2CCN(c3cc(OC)nc(OC)n3)CC2C(=O)NCc2ccc(Cl)cc2)cc1 (racemic) | 
3.7 | > 50 | CCc1ccc(S(=O)(=O)N2CCN(c3cc(OC)nc(OC)n3)CC2C(=O)NCc2ccccc2Cl)cc1 (racemic) | 
2.4 | > 50 | CCc1ccc(S(=O)(=O)N2CCN(c3cc(OC)nc(OC)n3)CC2C(=O)NCc2ccc(Cl)cc2Cl)cc1 (racemic) | 
1.2 | 12.4 | CCc1ccc(S(=O)(=O)N2CCN(c3cc(OC)nc(OC)n3)CC2C(=O)NCc2ccc(OC)cc2OC)cc1 (racemic) | 
0.9 | 14.6 | CCc1ccc(S(=O)(=O)N2CCN(c3cc(OC)nc(OC)n3)CC2C(=O)NCc2ccc(OC)c(OC)c2)cc1 (racemic) | 

EC50 [3, 6] [µM] | EC50 [4, 7] [µM] | Compound | other results
1.2 | 47 | CCc1ccc(S(=O)(=O)N2CCN(c3cc(OC)nc(OC)n3)CC2C(=O)NCc2ccc(-c3cccs3)cc2)cc1 (racemic) | 
 |  | CCc1ccc(S(=O)(=O)N2CCN(c3cc(OC)nc(OC)n3)CC2C(=O)NCC2CC2)cc1 (racemic) | EC50 [3]: Not Active; EC50 [4]: Not Active
2.1 | 20.8 | CCc1ccc(S(=O)(=O)N2CCN(c3cc(OC)nc(OC)n3)CC2C(=O)NCc2c(C)nn(-c3ccccc3)c2C)cc1 (racemic) | 
20.3 |  | COc1cc(N2CCN(S(=O)(=O)c3ccccc3)C(C(=O)NCc3ccc(OC(F)(F)F)cc3)C2)nc(OC)n1 (racemic) | EC50 [4]: Not Active
 |  | COc1cc(N2CCN(S(=O)(=O)C3CCCCC3)C(C(=O)NCc3ccc(OC(F)(F)F)cc3)C2)nc(OC)n1 (racemic) | EC50 [3]: Not Active; EC50 [4]: Not Active
 |  | COc1cc(N2CCN(S(=O)(=O)c3ccccc3F)C(C(=O)NCc3ccc(OC(F)(F)F)cc3)C2)nc(OC)n1 (racemic) | EC50 [3]: Not Active; EC50 [4]: Not Active
1.4 | 41 | COc1cc(N2CCN(S(=O)(=O)c3cccc(C)c3)C(C(=O)NCc3ccc(OC(F)(F)F)cc3)C2)nc(OC)n1 (racemic) | 
5.3 | 58 | COc1cc(N2CCN(S(=O)(=O)c3cccc(OC(F)(F)F)c3)C(C(=O)NCc3ccc(OC(F)(F)F)cc3)C2)nc(OC)n1 (racemic) | 
6.2 | 53 | COc1cc(N2CCN(S(=O)(=O)c3cccc(C(F)(F)F)c3)C(C(=O)NCc3ccc(OC(F)(F)F)cc3)C2)nc(OC)n1 (racemic) | 
0.7 | 8.1 | COc1cc(N2CCN(S(=O)(=O)c3ccc(OC(F)(F)F)cc3)C(C(=O)NCc3ccc(OC(F)(F)F)cc3)C2)nc(OC)n1 (racemic) | 
1.2 | 13 | COc1cc(N2CCN(S(=O)(=O)c3ccc(C(F)(F)F)cc3)C(C(=O)NCc3ccc(OC(F)(F)F)cc3)C2)nc(OC)n1 (racemic) | 
2.4 | 56 | COc1cc(N2CCN(S(=O)(=O)c3ccc(-c4ccccc4)cc3)C(C(=O)NCc3ccc(OC(F)(F)F)cc3)C2)nc(OC)n1 (racemic) | 
5.9 | 64 | COc1ccc(S(=O)(=O)N2CCN(c3cc(OC)nc(OC)n3)CC2C(=O)NCc2ccc(OC(F)(F)F)cc2)cc1 (racemic) | 
8.1 |  | COc1cc(N2CCN(S(=O)(=O)c3ccc(F)cc3)C(C(=O)NCc3ccc(OC(F)(F)F)cc3)C2)nc(OC)n1 (racemic) | EC50 [4]: Not Active
1.1 | 13 | COc1cc(N2CCN(S(=O)(=O)c3ccc(OC)c(OC)c3)C(C(=O)NCc3ccc(OC(F)(F)F)cc3)C2)nc(OC)n1 (racemic) | 
 |  | O=C(O)c1ccc(N2CCN(S(=O)(=O)c3ccc(OC(F)(F)F)cc3)C(C(=O)NCc3ccc(OC(F)(F)F)cc3)C2)nn1 (racemic) | EC50 [3]: Not Active; EC50 [4]: Not Active
 |  | O=C(O)c1cnc(N2CCN(S(=O)(=O)c3ccc(OC(F)(F)F)cc3)C(C(=O)NCc3ccc(OC(F)(F)F)cc3)C2)cn1 (racemic) | EC50 [3]: Not Active; EC50 [4]: Not Active
0.38 | 3.9 | COC(=O)c1ccc(N2CCN(S(=O)(=O)c3ccc(OC(F)(F)F)cc3)C(C(=O)NCc3ccc(OC(F)(F)F)cc3)C2)nn1 (racemic) | 
0.043 | 0.46 | CCC(C)(C)NC(=O)c1ccc(N2CCN(S(=O)(=O)c3ccc(OC(F)(F)F)cc3)C(C(=O)NCc3ccc(OC(F)(F)F)cc3)C2)nn1 (racemic) | 
